{"source": "paper PMC6801585", "about": "“Improved In Vivo Anti-Tumor and Anti-Metastatic Effect of GnRH-III-Daunorubicin Analogs on Colorectal and Breast Carcinoma Bearing Mice” (International Journal of Molecular Sciences, 2019)", "key": {"PE/CA-PJ15": {"test_system": "PE/CA-PJ15", "assay": "In vitro anti-proliferative activity (MTT assay)", "assay_type": "cell-based", "details": "PE/CA-PJ15 (head and neck), 24 h treatment + 48 h culture, average ± SD", "protocol": "(§1) In experimental procedures following cell lines were used, MDA-MB-231 and MCF-7 (human breast cancer), 4T1 (mice breast cancer), DU145 and PC-3 (human prostate cancer), A2780, OVCAR-3 and OVCAR-8 (human ovarian cancer), HepG2 (human liver cancer), A2058, WM983b, HT168-M1/9 and M24 (human melanoma), B16 (mice melanoma), H1975, H1650 and A549 (human lung cancer), HT-29 (human colorectal adenocarcinoma), C26 (mice colon cancer) and PANC-1 (pancreatic cancer) were cultured in RPMI 1640 Medium with glutamine (Roswell Park Memorial Institute Medium, Lonza, Basel, Switzerland). Moreover, U87MG (human malignant glioma) and MRC-5 (normal human fibroblast) were cultured in Dulbecco’s Modified Eagle’s Medium (DMEM, Lonza) and PE/CA-PJ15 and PE/CA-PJ41 (head and neck cancer) were cultured in Iscove’s Modified Dulbecco’s Medium (IMEM, Sigma Aldrich, St. Louis, MO, USA). Apart from the cell culture medium for OVCAR-3 cells, all media were supplemented with 10% heat-inactivated FBS (Fetal Bovine Serum, Euroclone, Milan, Italy) and 1% Penicillin/Streptomycin (Sigma Aldrich), while OVCAR-3 cells were cultured in 20% FBS containing RPMI medium. The cell lines were mainly obtained from ATCC, except for PE/CA-PJ15, PE/CA-PJ41 (ECACC), A2058 (kindly provided by L.A. Liotta, NCI, Bethesda, MD, USA), HT-168-M1/9 (derived from A2058), M24 (kind gift from B.M. Mueller, Scripps Research Institute, La Jolla, CA, USA) and WM983b (kindly provided by Meenhard Herlyn, Wistar Institute, Philadelphia, PA, USA). Cells were cultured in sterile T25 or T75 flasks with ventilation cap (Sarstedt, Nümbrecht, Germany) at 37 °C in a humidified atmosphere with 5% CO2.\n(§2) For the evaluation of the in vitro anti-proliferative activity of the GnRH-III conjugates and free Dau, the cell viability was determined by MTT assay (3-(4,5-dimethylthiazol-2-yl)-2,5-diphenyl-tetrazolium bromide) that was obtained from Sigma Aldrich. After standard harvesting of the cells by trypsin-EDTA (Lonza), 4 × 10^3 till 10 × 10^3 cells per well depending on cell line, were seeded in serum containing growth medium to 96-well plates (Sarstedt) and incubated. After 24 h, the growth medium was removed and cells were treated with various concentrations of conjugates 1 and 2 (32 nM–100 µM) or free Dau (0.1 nM–10 µM), dissolved in serum free medium and incubated for 24 h under standard conditions. The control wells were treated with serum free medium. After 24 h of treatment, the cells were washed twice with serum free medium and then cultured in serum containing medium for an additional 48 h. Afterward, the MTT assay was performed, in order to determine cell viability, by adding 20 µL of MTT solution (5 mg/mL in PBS) to each well and after 2 h of incubation at 37 °C, the supernatant was removed. The formazan crystals were dissolved in 100 µL of a 1:1 solution of DMSO (Sigma Aldrich):EtOH (Molar Chemicals Kft., Halásztelek, Hungary) and the absorbance was measured after 15 min. at λ = 570 nm by using a microplate reader (Bio-Rad, model 550, Hercules, CA, USA). The IC50 values of the conjugates and free drug were calculated while using GraphPad Prism 6 (GraphPad Software, San Diego, CA, USA). The experiments were done in triplicate and each experiment was repeated twice."}, "PE/CA-PJ41": {"test_system": "PE/CA-PJ41", "assay": "In vitro anti-proliferative activity (MTT assay)", "assay_type": "cell-based", "details": "PE/CA-PJ41 (head and neck), 24 h treatment + 48 h culture, average ± SD", "protocol": "as §1, §2"}, "U87MG": {"test_system": "U87MG", "assay": "In vitro anti-proliferative activity (MTT assay)", "assay_type": "cell-based", "details": "Homo sapiens, U-87 MG, U87MG (glioblastoma), 24 h treatment + 48 h culture, average ± SD", "protocol": "as §1, §2"}, "WM983b": {"test_system": "WM983b", "assay": "In vitro anti-proliferative activity (MTT assay)", "assay_type": "cell-based", "details": "Homo sapiens, WM983b (melanoma), 24 h treatment + 48 h culture, average ± SD", "protocol": "as §1, §2"}, "[1]": {"assay": "Chronic toxicity study on healthy mice", "assay_type": "in vivo", "details": "healthy BALB/c female mice; i.p.; conjugates 15 mg/kg Dau content x5 (days 1,3,6,8,10); free Dau 1 mg/kg x2 (days 1,8); 14 days; 3 mice per group", "protocol": "Adult female inbred BALB/c mice from a specified pathogen free (SPF) breeding of the National Institute of Oncology (Budapest, Hungary), were used in acute and chronic toxicity studies and in orthotopic 4T1 mice breast tumor model experiment. The mice were kept in a sterile environment in Makrolon® cages at 22–24 °C (40–50% humidity), with a lighting regulation of 12/12 h light/dark. The animals had free access to tap water and were fed with a sterilized standard diet (VRF1, autoclavable, Akronom Kft., Budapest, Hungary) ad libitum.\nIn order to determine the toxicity of the conjugates, in vivo acute and chronic toxicity studies were performed on healthy animals. In acute toxicity study, adult BALB/c female mice (20–23 g) were treated by a single intraperitoneal (i.p.) injection of conjugate 2, whereby different doses (3.125, 6.25, 12.5, 25 and 50 mg/kg Dau content) were administrated to each groups (three mice per group). In chronic toxicity studies, adult female BALB/c mice (23–26 g) were treated either with GnRH-III conjugates by i.p. administration with a dose of 15 mg/kg Dau content on day 1, 3, 6, 8 and 10, or with free Dau (1 mg/kg) on day 1 and 8. In case of the control group, sterile water was administered. Each group consisted of three mice. The toxicity was evaluated on the basis of life span, behavior and appearance of the mice, as well as the body weight. […]"}, "[2]": {"test_system": "4T1 mice breast carcinoma", "assay": "Orthotopic 4T1 mice breast tumor model", "assay_type": "in vivo, BALB/c female mice", "description": "Adult BALB/c female mice (20–25 g) were used in this experiment and kept under the same conditions, as described above. 4T1 mice breast carcinoma cells, maintained as described above, were orthotopically injected into the lower quarter of the right mammary fat pad line of mice, whereby 1 × 10^6 cells were used per animal, suspended in 50 µL M199 medium (Sigma Aldrich). The treatment started seven days after cells inoculation, when the average tumor volume was 38 mm^3, by i.p. administration of the conjugates or free Dau. Four groups with seven animals per group were established and treated with certain doses and schedules. The mice in the control group were treated with sterile water, while mice in free Dau group were treated with a dose of 1 mg/kg, once per week, on days 7, 14 and 21 after cells inoculation. […] Animal weight and tumor volumes were measured initially when the treatment started and at periodic intervals according to the treatment schedule. A digital caliper was used to measure the longest (a) and the shortest diameter (b) of a given tumor. The tumor volume was calculated while using the formula V = ab^2 × π/6, whereby a and b represent the measured parameters (length and width). The termination of the experiment was initiated 28 days after cell inoculation, respectively 22 days after treatment start, since the average volume of the tumors in the control group reached 1800 mm^3. The mice from all groups were sacrificed by cervical dislocation. The anti-tumor effects and the liver toxicity of the conjugates and free Dau were evaluated based on the tumor volume and the liver weight/body weight ratio in each group. Moreover, the anti-proliferative and anti-metastatic activity of the conjugates and free Dau was evaluated in primary tumor and in metastases on the peripheral organs.\nThe routinely formalin-fixed tumors were dehydrated in a graded series of ethanol, infiltrated with xylene and embedded into paraffin at a temperature not exceeding 60 °C. Two micron thick sections were mounted on Superfrost slides (Thermo Shandon, Runcorn, UK) and then manually deparaffinized. To block endogenous peroxidase activity, slides were treated for 20 min. at r.t. with 3% H2O2 in methanol. The slides were immersed in 6% citrate buffer (pH = 6) and exposed to 98 °C water bath for 40 min. […] After washing, secondary antibody Biotinylated Link (Dako) was applied for 10 min. at r.t. For visualization, supersensitive one step polymer HRP (Biogenex, Fremont, CA, USA) was used with 3-amino-9-ethylcarbazole (AEC) as chromogen. Staining without the primary antibody served as the negative control.\nLiver, spleen, lung and kidneys were harvested and fixed in formalin. All of the visible macro-metastatic lesions of the peripheral organs of seven animals from the control and treated groups on a stereo microscope Kruss MSZ5600 (Kruss Optronic, Hamburg, Germany) under 7–45-fold magnification were counted. The percentages of macro-metastatic lesions in the treated groups compared to the control group was calculated.\nProliferation marker stained samples were evaluated on light microscope Olympus BH-2 microscope (Olympus, Tokyo, Japan). […] The proliferation index was calculated as percentage of KI-67 positive cells from all cells in the field of view."}, "[3]": {"test_system": "MDA-MB-231 human breast carcinoma", "assay": "Orthotopic MDA-MB-231 human breast tumor model", "assay_type": "in vivo, SCID female mice", "description": "Adult SCID female mice (22–28 g) were used in this experiment and kept under the same conditions, as described above. […] The treatments started 21 days after cells inoculation, when average tumor volume was 40 mm^3. Free Dau and conjugates were administrated by i.p. injection. Four groups with seven animals per group were established and treated with certain doses and schedules. The mice in the control group were treated with sterile water, while the mice in the free Dau group were treated with a dose of 1 mg/kg, once per week, on day 21, 28, 35 and 42 after cell inoculation. […] The last treatment was performed on day 42 after cell inoculation, whereby a dose of 7.5 mg/kg Dau content was applied. The animal weights and tumor volumes were measured when the treatment was initiated and at periodic intervals according to the treatment schedule. The tumor volume was calculated in the same manner as described for mice breast carcinoma. […] The mice from all groups were sacrificed by cervical dislocation and primary tumors and livers were harvested and weighed, while number of animals with metastases were counted. The anti-tumor effects of the conjugates were evaluated measuring the tumor volume and the tumor weights, while the toxicity effects of conjugates were evaluated measuring liver weights and calculating the liver weight/body weight ratio."}, "[4]": {"test_system": "HT-29 human colon carcinoma", "assay": "Orthotopic HT-29 human colon tumor model", "assay_type": "in vivo, SCID female mice", "description": "Immunodeficient, 6–8 weeks old SCID female mice (21–27 g) were used in this experiment. HT-29 colon carcinoma cells were subcutaneously injected into one side of the intrascapular region, whereby 2 × 10^6 cells were used per animal, suspended in 200 µL of M199 medium, in order to establish the xenografts with primary tumor. After two weeks, the mice with palpable tumors were sacrificed by cervical dislocation, disinfected with iodine and the subcutaneous tumor was aseptically dissected out.\nThe abdomen of mice was disinfected with iodine and alcohol, a small midline incision (0.5 cm) was then made and the colorectal part of the intestine was exteriorized. Serosa of the site where the tumor pieces should be implanted were removed. Tumor tissue fragments of HT-29 human colon tumor were implanted on the top of the animal intestine, whereby an 8/0 surgical (polypropylene) suture was used to suture it on the wall of the intestine. The intestine was returned to the abdominal cavity and the abdominal wall was closed with 4/0 surgical (polyglycolic acid) sutures. The wound was disinfected with iodine and alcohol again and the animals were kept in a sterile environment.\nThe treatments started seven days after tumor transplantation by i.p. administration of the free Dau and conjugates which were dissolved in sterile water for injection. Six mice per group were used. One group of mice was treated with free Dau at a dose of 1 mg/kg body weight on day 7, 13 and 20 after tumor transplantation. […] The control group was treated with sterile water. The experiment was terminated on day 30 after tumor transplantation (day 24 of treatment). […] The mice from all groups were sacrificed by cervical dislocation. Their tumors and livers were harvested and weighed."}, "[5]": {"details": "vs control, 1 and 2 10 mg/kg Dau content x6, free Dau 1 mg/kg x3, day 28, 7 animals"}, "[6]": {"details": "SCID mice, i.p., 1 and 2 15 mg/kg Dau content x6 + 7.5 mg/kg x1, free Dau 1 mg/kg x4, day 45, 7 per group"}, "[7]": {"details": "SCID mice, i.p., 1 and 2 10 mg/kg Dau content x7, end day 30, free Dau 1 mg/kg x3, end day 23, 6 per group"}}, "note": "“And” between values parts separate entries of the source, which are not always exact repeats. Equal values may be shown once.", "data": [{"smiles": "COc1cccc2c1C(=O)c1c(O)c3c(c(O)c1C2=O)C[C@@](O)(C(C)=O)C[C@@H]3O[C@H]1C[C@H](N)[C@H](O)[C@H](C)O1", "note": "[Dau, daunorubicin]", "values": [{"measurement": "IC50", "setting": "PE/CA-PJ15", "value": "50.5 ± 38.7", "unit": "nM"}, {"measurement": "IC50", "setting": "PE/CA-PJ41", "value": "45.6 ± 33.5", "unit": "nM"}, {"measurement": "IC50", "setting": "U87MG", "value": "126 ± 53.7", "unit": "nM"}, {"measurement": "IC50", "setting": "WM983b", "value": "49.8 ± 22.9", "unit": "nM"}, {"measurement": "Chronic toxicity: body weight, general looking and behavior", "setting": "[1]", "value": "could not observe a significant change in body weight"}, {"measurement": "Decrease of liver/body weight ratio compared to control", "setting": "[2]; 1 and 2 10 mg/kg Dau content x6, free Dau 1 mg/kg x3, day 28", "value": 9.8, "unit": "%"}, {"measurement": "Animal body weight at the end of experiment compared to the start", "setting": "[2]; BALB/c mice, i.p., 1 and 2 10 mg/kg Dau content x6, free Dau 1 mg/kg x3, day 28, 7 per group", "value": "slightly decreased"}, {"measurement": "Inhibition of proliferation index of lung metastases", "setting": "[2]; KI-67, vs control, 1 and 2 10 mg/kg Dau content x6, free Dau 1 mg/kg x3", "value": "27.8% and 28%"}, {"measurement": "Decrease of proliferation index in primary tumor compared to control", "setting": "[2]; KI-67 positive cells, 400x, 1 and 2 10 mg/kg Dau content x6, free Dau 1 mg/kg x3, day 28", "value": 19, "unit": "%"}, {"measurement": "Inhibition of number of micro-metastases in the lung compared to control", "setting": "[2]; KI-67 stained, per field of view 100x, 1 and 2 10 mg/kg Dau content x6, free Dau 1 mg/kg x3", "value": "33.7% and 34%"}, {"measurement": "Decrease of spleen weight compared to control", "setting": "[2]; day 28, 7 per group, Figure S2", "value": 27.2, "unit": "%"}, {"measurement": "Decrease of number of macro-metastases in lung", "setting": "[2]; [5]", "value": 55.4, "unit": "%"}, {"measurement": "Decrease of number of macro-metastases in spleen", "setting": "[2]; [5]", "value": 64.3, "unit": "%"}, {"measurement": "Decrease of liver/body weight ratio compared to control", "setting": "[3]; 1 and 2 15 mg/kg Dau content x6 + 7.5 mg/kg x1, free Dau 1 mg/kg x4, day 45", "value": 16.8, "unit": "%"}, {"measurement": "Decrease of body weight at the end of experiment compared to the beginning", "setting": "[3]; [6]", "value": 20, "unit": "%"}, {"measurement": "Inhibition of tumor volume compared to control", "setting": "[3]; [6]", "value": "46.3% and 46%"}, {"measurement": "Inhibition of tumor weight", "setting": "[3]; [6]", "value": 40.1, "unit": "%"}, {"measurement": "Number of mice with metastases close to the primary tumor", "setting": "[3]; end of experiment day 45, control 5/5", "value": "four out of seven and 4/7 and 4/7 ^2"}, {"measurement": "Decrease of liver/body weight ratio compared to control", "setting": "[4]; 1 and 2 10 mg/kg Dau content x7, day 30, free Dau 1 mg/kg x3, day 23", "value": 29.4, "unit": "%"}, {"measurement": "Animal body weight at the end of experiment compared to the start", "setting": "[4]; [7]", "value": "significantly decreased"}, {"measurement": "Reduction of tumor weight compared to control", "setting": "[4]; [7]", "value": "84.3% and 84%"}]}]}
